From patent EP0151996A2, “Process for the Preparation of a double-chain plasminogen activator” (Asahi Kasei Kogyo Kabushiki Kaisha, priority 1984, dated 1985)
Read-outs that look alike come from different tables or passages of the source.

Key:
[1] = target: T1, single-chain plasminogen activator (Homo sapiens, UniProt P00750); experiment: Influence of proteinase inhibitors on hydrolysis of Boc-Phe-Ser-Arg-MCA, single-chain form; format: biochemical
T1 construct: culturing human normal tissue derived cells such as cells derived from human embryonic kidney, intestines, lungs; endogenous in cells; host or cells: human normal tissue derived cells (e.g. human embryonic kidney or lung cells); secreted protein purified from the culture liquor in the presence of aprotinin
T1 sequence (P00750 36-562): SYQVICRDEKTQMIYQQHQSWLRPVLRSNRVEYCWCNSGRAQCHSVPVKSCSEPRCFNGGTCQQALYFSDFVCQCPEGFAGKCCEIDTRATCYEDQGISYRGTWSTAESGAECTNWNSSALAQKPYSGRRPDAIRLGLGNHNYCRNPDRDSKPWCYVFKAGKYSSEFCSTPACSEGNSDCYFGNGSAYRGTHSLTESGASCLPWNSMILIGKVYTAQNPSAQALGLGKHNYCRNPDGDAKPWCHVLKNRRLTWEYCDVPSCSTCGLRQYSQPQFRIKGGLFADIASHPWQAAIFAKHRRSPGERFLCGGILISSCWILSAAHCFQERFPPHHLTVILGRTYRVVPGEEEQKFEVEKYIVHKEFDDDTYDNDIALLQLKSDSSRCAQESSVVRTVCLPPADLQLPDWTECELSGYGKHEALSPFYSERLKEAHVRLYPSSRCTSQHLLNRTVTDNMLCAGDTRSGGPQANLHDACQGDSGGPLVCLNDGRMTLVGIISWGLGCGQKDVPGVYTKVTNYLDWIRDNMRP
Method: (§1) To 50 µℓ of either each of the substances of this invention (100 U/mt) or urokinase (100 IU/mℓ) were added 50 µℓ of one of a number of solutions of various proteinase inhibitors and 300 µℓ of a 0.05 M tris-HCt buffer (pH 8.0) containing 0.1 M sodium chloride, and each reaction was effected at 37°C for 5 minutes. Thereafter, 100 µℓ of 0.1 mM of Boc-Phe-Ser-Arg-MCA (Peptide Institute, Inc.) was added, and each reaction was effected at 37°C.for 60 minutes. Thereafter, 0.5 mℓ of 20% acetic acid was added to terminate the reaction which was then measured for the formed aminomethylcoumarin at an excitation wavelength of 370 nm, a slit width of 2 nm, an emission wavelength of 460 nm and a slit width of 2 nm to determine the hydrolysis activity.
(§2) The concentrations (IC50) of the proteinase inhibitors which inhibit 50% of the activity of the substances of this invention were determined and the results are shown in Table 2.

[2] = target: T2, double-chain plasminogen activator (Homo sapiens, UniProt P00750); experiment: Influence of proteinase inhibitors on hydrolysis of Boc-Phe-Ser-Arg-MCA, double-chain form; format: biochemical
T2 construct: endogenous in cells; host or cells: human normal tissue derived cells (e.g. human embryonic kidney or lung cells); secreted protein purified from the culture liquor and converted by enzyme (plasmin) treatment or incubation
T2 sequence (P00750 311-562 limits assumed): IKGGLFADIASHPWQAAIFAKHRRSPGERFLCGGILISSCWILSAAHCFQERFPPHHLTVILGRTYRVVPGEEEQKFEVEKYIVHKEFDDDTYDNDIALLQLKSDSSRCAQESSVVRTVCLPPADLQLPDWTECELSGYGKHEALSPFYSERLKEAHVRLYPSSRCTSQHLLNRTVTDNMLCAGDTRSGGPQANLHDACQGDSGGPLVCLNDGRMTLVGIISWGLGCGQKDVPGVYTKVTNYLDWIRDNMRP
T2 sequence (P00750 36-310 partner limits assumed): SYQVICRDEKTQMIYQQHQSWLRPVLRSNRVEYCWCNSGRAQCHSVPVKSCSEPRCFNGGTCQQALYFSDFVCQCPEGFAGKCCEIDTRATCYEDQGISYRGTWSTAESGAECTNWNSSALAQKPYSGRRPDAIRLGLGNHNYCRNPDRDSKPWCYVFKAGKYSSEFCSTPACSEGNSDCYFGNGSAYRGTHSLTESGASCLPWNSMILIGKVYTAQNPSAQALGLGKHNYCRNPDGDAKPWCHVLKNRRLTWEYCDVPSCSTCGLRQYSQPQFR
Method: as §1, §2

SMILES: CCOC(=O)c1ccc(OC(=O)CCCCCNC(=N)N)cc1 [FOY]
- IC50 ([1]; Single-Chain Structure 100 U/mℓ, substrate Boc-Phe-Ser-Arg-MCA, 37°C 60 minutes, read-out: IC50): 17 µM
- IC50 ([2]; Double-Chain Structure 100 U/mℓ, substrate Boc-Phe-Ser-Arg-MCA, 37°C 60 minutes, read-out: IC50): 92 µM

SMILES: CC(=O)N[C@@H](CC(C)C)C(=O)N[C@@H](CC(C)C)C(=O)N[C@H](C=O)CCCNC(=N)N [Leupeptin]
- IC50 [1]: 280 µM
- IC50 [2]: 570 µM
